# In patent publication US8258116B2, “Combination therapy for the treatment of HCV infection” (Vertex Pharmaceuticals Incorporated, priority 2007, dated 2012):
# Like-named read-outs stand apart in the source and are kept apart here.
# How the values were obtained:
# [1] = test system: HCV NS3 protease variant replicon A156T; settings: A156T replicon versus wild-type (Lin et al., 2005); cited from earlier work
# [2] = test system: HCV NS3 protease variant replicon T54A; assay: microbe, parasite or virus in culture; type: cell-based; settings: for Fold Change: T54A, ratio of mutant IC50 to Wild type IC50 for the same inhibitor; for IC50: Hepatitis C virus
# Protocol: (§1) Huh-7 cells were propagated in Dulbecco's modified Eagle's medium (DMEM, JRH Biosciences, Lenexa, Kans.) supplemented with 10% heat-inactivated FBS (fetal bovine serum), 2 mM L-glutamine, and nonessential amino acids (JRH). The cells were transfected with an in vitro transcribed HCV replicon RNA identical to replicon 1377neo/NS3-3′/wt as described by Lohmann et al. (1999). Stable cell clones were selected and maintained in the presence of 250 μg/mL G418 (Invitrogen, Carlsbad, Calif.). […] The HCV NS3 protease variant replicons were constructed in the background of the mADE wild-type replicon as described previously [Chao Lin et al., “In Vitro Resistance Studies of Hepatitis C Virus Serine Protease Inhibitors, VX-950 and BILN 2061: Structural Analysis Indicates Different Resistance Mechanisms,” Journal of Biological Chemistry, 279(17); pp. 17508-17514 (2004)]. The replicon cells were propagated in DMEM supplemented with 10% FBS, 2 mM L-glutamine, nonessential amino acids, and 250 μg/mL G418. The cells were split twice per week in fresh media upon reaching confluence. There are approximately 200-300 copies of HCV RNA per 24-2 replicon cell.
# (§2) HCV replicon RNA from cells was measured using the Quantigene Discover XL kit (Panomics Inc., Fremont Calif.) as per the manufacturer's instructions. Briefly, compound-treated replicon cells were lysed and immobilized on to capture plates using HCV specific oligonucleotides (designed based on the 5′ UTR region of HCV 1b genome sequence AJ238799 in the GenBank database) over night and the relative amounts of captured RNA was measured using oligonucleotide probe sets as per the manufacturer's instructions.
# (§3) On the day prior to the assay, 10,000 replicon cells were plated per well of a 96-well plate and allowed to attach and grow overnight in DMEM (Invitrogen, Carlsbad, Calif.) supplemented with 10% heat-inactivated FBS (JRH Biosciences, Lenexa, Kans.), 2 mM L-glutamine (Invitrogen), nonessential amino acids (Invitrogen) and 250 μg/ml G418 (Invitrogen). Next day, the medium was removed and antiviral agents that were serially diluted in DMEM containing 2% FBS and 0.5% DMSO (Sigma Chemical Co., St. Louis, Mo.) without G418, was added. The replicon cells were incubated with the antiviral agents for 48 h. HCV replicon RNA from cells was measured using the Quantigene Discover XL kit (Panomics Inc., Fremont Calif.) as per the manufacturer's instructions. Briefly, compound-treated replicon cells were lysed and immobilized onto capture plates using HCV specific oligonucleotides overnight and the relative amounts of captured RNA was measured using oligonucleotide probe sets as per the manufacturer's instructions. Unless indicated otherwise, each data point represents the average of three replicates. The IC50 is the concentration of the compound at which the HCV replicon RNA level in cells is reduced by 50% as compared to the untreated replicon cell controls. To monitor the effect of compounds on cell proliferation or cell viability, replicon cells were treated with serially diluted compounds for 48 h, after which cell viability was determined using a CellTiter Glo assay (Promega, Madison, Wis.). Each CC50 is derived from at least two replicates and is the concentration of the compound at which the number of viable cells is reduced by 50% as compared to untreated cell controls. The IC50 and CC50 was determined using 4-parameter curve fitting in the SoftMax Pro program (Molecular Devices, Sunnyvale, Calif.).
# (§4) The sensitivity of NS3 protease variants to ribavirin and interferon was assessed in a 2-Day HCV Replicon IC50 Assay.
# [3] = test system: HCV NS3 protease variant replicon V36A-R155T; assay: microbe, parasite or virus in culture; type: cell-based; settings: for Fold Change: V36A-R155T, ratio of mutant IC50 to Wild type IC50 for the same inhibitor
# Protocol: as §1, §2, §3, §4
# [4] = test system: HCV NS3 protease variant replicon V36A; assay: microbe, parasite or virus in culture; type: cell-based; settings: for Fold Change: V36A, ratio of mutant IC50 to Wild type IC50 for the same inhibitor; for IC50: Hepatitis C virus
# Protocol: as §1, §2, §3, §4
# [5] = test system: HCV NS3 protease variant replicon R155T; assay: microbe, parasite or virus in culture; type: cell-based; settings: for Fold Change: R155T, ratio of mutant IC50 to Wild type IC50 for the same inhibitor
# Protocol: as §1, §2, §3, §4
# [6] = test system: HCV NS3 protease variant replicon V36M-R155T; assay: microbe, parasite or virus in culture; type: cell-based; settings: for Fold Change: V36M-R155T, ratio of mutant IC50 to Wild type IC50 for the same inhibitor
# Protocol: as §1, §2, §3, §4
# [7] = test system: HCV NS3 protease variant replicon V36A-R155K; assay: microbe, parasite or virus in culture; type: cell-based; settings: for Fold Change: V36A-R155K, ratio of mutant IC50 to Wild type IC50 for the same inhibitor
# Protocol: as §1, §2, §3, §4
# [8] = test system: HCV NS3 protease variant replicon R155K; assay: microbe, parasite or virus in culture; type: cell-based; settings: for Fold Change: R155K, ratio of mutant IC50 to Wild type IC50 for the same inhibitor; for IC50: Hepatitis C virus
# Protocol: as §1, §2, §3, §4
# [9] = test system: HCV NS3 protease variant replicon V36M; assay: microbe, parasite or virus in culture; type: cell-based; settings: for Fold Change: V36M, ratio of mutant IC50 to Wild type IC50 for the same inhibitor; for IC50: Hepatitis C virus
# Protocol: as §1, §2, §3, §4
# [10] = test system: HCV NS3 protease variant replicon V36M+R155K; assay: microbe, parasite or virus in culture; type: cell-based; settings: for Fold Change: V36M-R155K, ratio of mutant IC50 to Wild type IC50 for the same inhibitor
# Protocol: as §1, §2, §3, §4
# [11] = test system: HCV NS3 protease variant replicon R155M; assay: microbe, parasite or virus in culture; type: cell-based; settings: for Fold Change: R155M, ratio of mutant IC50 to Wild type IC50 for the same inhibitor
# Protocol: as §1, §2, §3, §4
# [12] = test system: HCV replicon Wild Type (mADE); assay: 2-Day HCV Replicon IC50 Assay, wild type replicon; type: cell-based; settings: for Fold Change: ratio of IC50 to Wild type IC50 for the same inhibitor; for IC50: Hepatitis C virus
# Protocol: as §1, §2, §3, §4
# [13] = test system: HCV NS3 protease variant replicon A156V; settings: A156V replicon versus wild-type (Lin et al., 2005); cited from earlier work
# [14] = test system: HCV NS3 protease variant replicon A156V; assay: 2-Day HCV Replicon IC50 Assay, A156V; type: cell-based; settings: for Fold Change: A156V, ratio of mutant IC50 to Wild type IC50 for the same inhibitor; for IC50: Hepatitis C virus, read-out: Avg. IC50 ± STDEV
# Protocol: as §1, §2, §3, §4
# [15] = test system: HCV replicon cells (wild-type clone 24-2, Huh-7); assay: 2-day Replicon assay with bDNA quantitation, checkerboard combination (Bliss independence / MacSynergy); type: cell-based; settings: Hepatitis C virus, Huh-7, 48 h, polymerase inhibitor in the checkerboard experiment with VX-950, read-out: Polymerase Inhibitor IC50
# Protocol: Huh-7 cells were propagated in Dulbecco's modified Eagle's medium (DMEM, JRH Biosciences, Lenexa, Kans.) supplemented with 10% heat-inactivated FBS (fetal bovine serum), 2 mM L-glutamine, and nonessential amino acids (JRH). The cells were transfected with an in vitro transcribed HCV replicon RNA identical to replicon 1377neo/NS3-3′/wt as described by Lohmann et al. (1999). Stable cell clones were selected and maintained in the presence of 250 μg/mL G418 (Invitrogen, Carlsbad, Calif.). One of the clones, 24-2, was used as the wild-type in the subsequent HCV replicon assays for combination studies. The HCV NS3 protease variant replicons were constructed in the background of the mADE wild-type replicon as described previously [Chao Lin et al., “In Vitro Resistance Studies of Hepatitis C Virus Serine Protease Inhibitors, VX-950 and BILN 2061: Structural Analysis Indicates Different Resistance Mechanisms,” Journal of Biological Chemistry, 279(17); pp. 17508-17514 (2004)]. The replicon cells were propagated in DMEM supplemented with 10% FBS, 2 mM L-glutamine, nonessential amino acids, and 250 μg/mL G418. The cells were split twice per week in fresh media upon reaching confluence. There are approximately 200-300 copies of HCV RNA per 24-2 replicon cell.
# as §2, §3
# The effects of drug-drug combinations were evaluated using the Bliss independence model [W. R. Greco et al., “The search for synergy: a critical review from a response surface perspective,” Pharmacol. Rev., 47, pp. 331-385 (1995)]. The experimental data were analyzed by using MacSynergy, a three-dimensional analytical method developed by Prichard and Shipman [M. N. Prichard and C. […]
# [16] = test system: HCV NS3 protease variant replicon A156T; assay: 2-Day HCV Replicon IC50 Assay, A156T; type: cell-based; settings: for Fold Change: A156T, ratio of mutant IC50 to Wild type IC50 for the same inhibitor; for IC50: Hepatitis C virus, read-out: Avg. IC50 ± STDEV
# Protocol: as §1, §2, §3, §4
# [17] = Table 8, Wild Type replicon, read-out: Avg. IC50 ± STDEV
# [18] = Hepatitis C virus, read-out: Avg. IC50
Compound,sensitivity of replicon [1],Fold Change [2],Fold Change [3],Fold Change [4],Fold Change [5],Fold Change [6],Fold Change [8],Fold Change [9],Fold Change [10],Fold Change ([12]; Wild Type replicon),Fold Change [14],IC50 [14],IC50 [15],IC50 ([2]; read-out: Avg. IC50 ± STDEV),IC50 ([4]; read-out: Avg. IC50 ± STDEV),IC50 ([8]; read-out: Avg. IC50 ± STDEV),IC50 ([9]; read-out: Avg. IC50 ± STDEV),"IC50 [12, 17]",Fold Change [16],IC50 [16],other results
IFN-α,comparable to the wild-type,0.3,0.3,0.9,0.4,0.3,1.3,1.0,0.9,1.0,–,–,–,–,–,–,–,–,–,–,"Avg. IC50 ([2]; IFN-α, T54A replicon): 3.9 ± 0.5 units/ml; Avg. IC50 ([3]; IFN-α, V36A-R155T replicon): 3.9 ± 2.1 units/ml; Avg. IC50 ([4]; IFN-α, V36A replicon): 10.3 ± 6.0 units/ml; Avg. IC50 ([5]; IFN-α, R155T replicon): 4.8 ± 3.3 units/ml; Avg. IC50 ([6]; IFN-α, V36M-R155T replicon): 3.1 ± 0.2 units/ml; Avg. IC50 ([7]; IFN-α, V36A-R155K replicon): 6.8 ± 0.5 units/ml; Fold Change [7]: 0.6; Avg. IC50 ([8]; IFN-α, R155K replicon): 15.2 ± 12.3 units/ml; Avg. IC50 ([9]; IFN-α, V36M replicon): 11.3 ± 5.9 units/ml; Avg. IC50 ([10]; IFN-α, V36M-R155K replicon): 10.1 ± 5.9 units/ml; Avg. IC50 ([11]; IFN-α, R155M replicon): 4.9 ± 1.0 units/ml; Fold Change [11]: 0.4; Avg. IC50 ([12]; IFN-α, Wild Type (mADE) replicon): 11.6 ± 1.1 units/ml; sensitivity of replicon [13]: comparable to the wild-type"
O=c1c(C2=NS(=O)(=O)c3ccccc3N2)c(O)c2ccccc2n1NC1CCC1 [Formula II],–,1.6,–,1.6,–,–,1.3,1.0,1.7,1.0,0.8,0.264 ± 0.045 µM,1.04 µM,0.564 ± 0.111 µM,0.571 ± 0.093 µM,0.45 ± 0.023 µM,0.36 ± 0.164 µM,0.347 ± 0.108 µM,0.9,0.326 ± 0.003 µM,–
CCN(CC)C1CCN(C(=O)Cn2c(-c3ccc(Cl)cc3)c(C3CCCCC3)c3ccc(C(=O)O)cc32)CC1 [Formula III],–,1.1,–,1.2,–,–,1.2,0.7,1.3,1.0,0.9,0.297 ± 0.066 µM,0.7 µM,0.337 ± 0.045 µM,0.369 ± 0.066 µM,0.39 ± 0.065 µM,0.227 ± 0.064 µM,0.313 ± 0.032 µM,1.0,0.306 ± 0.01 µM,–
"NC(=O)c1ncn([C@@H]2O[C@H](CO)[C@@H](O)[C@H]2O)n1 [Ribavirin, 1-beta-D-ribofuranosyl-1H-1,2,4-triazole-3-carboxamide, reference compound]",comparable to the wild-type,0.4,0.7,0.7,0.6,0.6,0.6,0.6,0.7,1.0,–,–,–,–,–,–,–,–,–,–,"IC50 ([2]; read-out: Avg. IC50): 21.7 ± 11.1 µM; IC50 [3, 18]: 41.7 ± 21.6 µM; IC50 ([4]; read-out: Avg. IC50): 43.1 ± 21.3 µM; IC50 [5, 18]: 32.4 ± 17.7 µM; IC50 [6, 18]: 36.4 ± 1.3 µM; IC50 [7, 18]: 35.8 ± 2.2 µM; Fold Change [7]: 0.6; IC50 ([8]; read-out: Avg. IC50): 37.2 ± 17 µM; IC50 ([9]; read-out: Avg. IC50): 32.9 ± 17.8 µM; IC50 [10, 18]: 40.6 ± 6.1 µM; IC50 [11, 18]: 38.9 ± 4.7 µM; Fold Change [11]: 0.7; IC50 ([12]; Ribavirin, Wild Type (mADE) replicon, read-out: Avg. IC50): 57.8 ± 17.6 µM; sensitivity of replicon [13]: comparable to the wild-type"
C[C@@]1(O)[C@H](O)[C@@H](CO)O[C@H]1n1ccc(N)nc1=O [Formula I],–,1.5,–,1.6,–,–,1.8,1.2,2.0,1.0,1.0,1.31 ± 0.216 µM,7.21 µM,1.98 ± 0.388 µM,2.15 ± 0.874 µM,2.37 ± 0.678 µM,1.59 ± 0.361 µM,1.34 ± 0.473 µM,0.9,1.27 ± 0.185 µM,–
